# Results: US20240174744A1, “METHODS OF TREATMENT USING PROTEIN BINDERS TO IRHOM2 EPITOPES” (SCIRHOM GMBH, priority 2021, published 2024)
# System: PMA-induced release of HB-EGF from THP-1 cells
# Test: ELISA-based HB-EGF release assay, PMA-stimulated THP-1 cells
# Format: cell-based
# Settings: Homo sapiens, murine (m) and chimeric (ch) antibodies 3 μg/ml, Batimastat 10 μM, PMA 25 ng/ml, 6 hours
# Description: In the following study, ELISA-based HB-EGF release assays were performed to analyze the inhibitory effects of the antibodies of the present disclosure on PMA-induced release of endogenous HB-EGF from human THP-1 monocytic cells.
# In brief, on day 1, Nunc black MaxiSorp® 96-well plates (Thermo Fisher Scientific, USA) were coated for 7 hours with 100 μl per well of rat anti-human HB-EGF capture antibody (provided as part of the DuoSet ELISA kit) at 2 μg/ml TBS at room temperature. Capture antibody solution was removed and MaxiSorp® plates were blocked with 300 μl per well of TBS, 1% BSA at room temperature for 3 hours. […]
# Subsequently, cells (except those for unstimulated controls) were stimulated with 20 μl per well of PMA (Sigma-Aldrich, USA) at 150 ng/ml in growth medium for a final concentration of 25 ng/ml at 37° C., 5% CO2 for 6 hours. […] Using an infinite M1000 (Tecan Group, Switzerland) microplate reader, the fluorescence of each well was collected at an excitation wavelength of 435 nm and an emission wavelength of 555 nm.
structure (smiles),measurement,value
CNC(=O)[C@H](Cc1ccccc1)NC(=O)[C@H](CC(C)C)[C@H](CSc1cccs1)C(=O)NO [Batimastat],inhibition at 10 µM,98.9%
